Data set [1] concerns the target T1, ADAAD (Bos taurus, UniProt Q9TTA5).
T1 sequence (Q9TTA5 229-940 limits assumed): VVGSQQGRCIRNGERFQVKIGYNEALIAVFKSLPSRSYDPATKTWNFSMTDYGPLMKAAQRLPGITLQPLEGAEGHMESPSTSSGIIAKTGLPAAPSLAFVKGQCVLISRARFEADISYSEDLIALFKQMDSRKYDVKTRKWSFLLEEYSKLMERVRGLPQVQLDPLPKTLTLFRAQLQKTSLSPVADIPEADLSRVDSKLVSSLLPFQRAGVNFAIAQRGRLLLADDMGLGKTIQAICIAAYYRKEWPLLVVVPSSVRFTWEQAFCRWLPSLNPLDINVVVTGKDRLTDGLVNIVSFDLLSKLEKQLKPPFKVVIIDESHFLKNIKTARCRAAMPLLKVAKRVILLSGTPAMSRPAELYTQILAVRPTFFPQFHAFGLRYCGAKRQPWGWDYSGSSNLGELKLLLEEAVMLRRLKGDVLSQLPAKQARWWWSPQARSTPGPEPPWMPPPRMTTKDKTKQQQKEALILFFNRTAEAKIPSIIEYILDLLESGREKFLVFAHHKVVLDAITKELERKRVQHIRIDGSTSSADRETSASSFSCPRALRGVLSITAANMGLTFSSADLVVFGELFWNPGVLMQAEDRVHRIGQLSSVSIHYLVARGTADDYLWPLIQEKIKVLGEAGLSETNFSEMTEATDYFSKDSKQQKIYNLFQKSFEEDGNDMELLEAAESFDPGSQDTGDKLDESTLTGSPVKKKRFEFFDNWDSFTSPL
Description: Intrinsic tryptophan fluorescence quenching binding titration with His-ADAAD. To be noted: His-ADAAD, read-out: Kd. As to the method: (§1) His-ADAAD, used for binding studies, was purified as described previously. For mapping and CD studies, ADAAD as well as deletion constructs were expressed as GST-fusion protein in BL21 (DE3) cells and purified as described previously. In case of deletion constructs the GST-tag was not cleaved as the resultant proteins were not stable.
(§2) Fluorescence was measured at 25°C using Cary-Varian spectrofluorimeter as described previously. Stem-loop DNA (5′- […]-3′), synthesized by Sigma-Aldrich, was used in these studies. The intrinsic fluorescence quenching data obtained with acrylamide was analyzed using Stern-Volmer plots as described previously, [14].
To understand the interaction of ADAADi with ADAAD, a member of the SWI2/SNF2 family, we synthesized ADAADi using kanamycin and neomycin. These derivatives, ADAADiK and ADAADiN respectively, were purified and titrated with protein while monitoring the quenching of the intrinsic tryptophan fluorescence. […] This binding constant was same as that in the absence of ATP and slDNA. A similar result was obtained with ADAADiK (Figure S3A and S3B; Table 1). We thus conclude that the interaction of the inhibitor with ADAAD is independent of these two ligands.

Data set [2] has as its target T2, MAD 47 (ADAAD deletion construct; motifs Q, I, Ia, II, III) (Bos taurus, UniProt Q9TTA5).
T2 sequence (Q9TTA5 211-635): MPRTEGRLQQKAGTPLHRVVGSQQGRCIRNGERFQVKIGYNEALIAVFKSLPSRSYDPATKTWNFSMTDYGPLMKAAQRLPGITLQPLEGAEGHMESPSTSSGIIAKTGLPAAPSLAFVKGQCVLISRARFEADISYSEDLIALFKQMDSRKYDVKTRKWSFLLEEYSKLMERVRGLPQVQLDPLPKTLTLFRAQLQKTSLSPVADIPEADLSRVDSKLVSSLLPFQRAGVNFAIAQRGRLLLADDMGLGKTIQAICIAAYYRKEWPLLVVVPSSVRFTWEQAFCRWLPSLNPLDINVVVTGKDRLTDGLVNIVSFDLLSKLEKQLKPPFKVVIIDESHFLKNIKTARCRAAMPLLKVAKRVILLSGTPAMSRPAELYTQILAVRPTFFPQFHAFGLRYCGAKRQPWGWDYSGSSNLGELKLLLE
Briefly: Fluorescence binding titration, deletion construct MAD47. As to the method: as §1, §2
(§3) ADAAD contains the conserved helicase motifs (Table 2). Three deletion constructs of ADAAD-MAD47, MAD33, and MAD53-lacking DNA-dependent ATPase activity were used to delineate the interaction region (Table 2). The Kd values for the interaction of ADAADiN with MAD47 and MAD 33 were similar to that of wild type leading to the conclusion that motifs Q, I, and Ia are sufficient for the ADAADi-ADAAD interaction. In contrast, these three motifs are not sufficient for the slDNA-ADAAD interaction (Table 2). […]

For data set [3], the target named is T3, MAD 33 (ADAAD deletion construct; motifs Q, I, Ia) (Bos taurus, UniProt Q9TTA5).
T3 sequence (Q9TTA5 211-507): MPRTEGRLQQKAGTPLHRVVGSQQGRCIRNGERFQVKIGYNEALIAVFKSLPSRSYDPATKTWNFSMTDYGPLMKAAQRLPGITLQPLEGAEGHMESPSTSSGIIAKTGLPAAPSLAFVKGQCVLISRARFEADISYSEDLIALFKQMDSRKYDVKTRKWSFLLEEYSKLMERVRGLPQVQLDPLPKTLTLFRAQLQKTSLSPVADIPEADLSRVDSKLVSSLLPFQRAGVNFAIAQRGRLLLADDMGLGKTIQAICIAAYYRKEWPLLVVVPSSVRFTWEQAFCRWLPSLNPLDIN
Briefly: Fluorescence binding titration, deletion construct MAD33. To be noted: GST fusion. As to the method:
as §1, §2, §3

The target of data set [4] is T4, MAD 53 (ADAAD deletion construct; motifs Ia, II, III, IV, V, VI) (Bos taurus, UniProt Q9TTA5).
T4 sequence (Q9TTA5 465-940): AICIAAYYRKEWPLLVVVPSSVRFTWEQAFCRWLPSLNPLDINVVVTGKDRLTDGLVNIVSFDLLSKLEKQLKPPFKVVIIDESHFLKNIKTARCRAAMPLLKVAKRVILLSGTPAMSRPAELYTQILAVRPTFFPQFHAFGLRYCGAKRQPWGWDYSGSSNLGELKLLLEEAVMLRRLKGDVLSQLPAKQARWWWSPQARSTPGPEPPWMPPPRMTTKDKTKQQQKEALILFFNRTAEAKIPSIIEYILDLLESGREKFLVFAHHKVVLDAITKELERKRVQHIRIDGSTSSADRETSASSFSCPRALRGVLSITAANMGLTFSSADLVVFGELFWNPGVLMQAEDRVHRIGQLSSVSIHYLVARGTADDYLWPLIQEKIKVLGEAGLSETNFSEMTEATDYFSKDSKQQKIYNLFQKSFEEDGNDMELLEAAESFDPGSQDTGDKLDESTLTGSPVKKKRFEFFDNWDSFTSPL
Description: Fluorescence binding titration, deletion construct MAD53. Particulars: GST fusion. The protocol: as §1, §2, §3

In data set [5] the test system is MAD28 (ADAAD deletion construct; motifs Q, I). Briefly: Fluorescence binding titration, deletion construct MAD28. Particulars: GST fusion. As to the method: as §1, §2
The target in data set [6] is T5, MAD8 (ADAAD deletion construct; motif Ia) (Bos taurus, UniProt Q9TTA5).
T5 sequence (Q9TTA5 465-535): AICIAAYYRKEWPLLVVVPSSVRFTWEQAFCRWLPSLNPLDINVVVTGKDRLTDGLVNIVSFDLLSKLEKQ
Description: Fluorescence binding titration, deletion construct MAD8. Particulars: GST fusion. The protocol: as §1, §2

Data set [7] deals with T1, ADAAD. Particulars: ADAAD alone; His-ADAAD; ref Nongkhlaw et al. (Nongkhlaw, 2009); cited from earlier work.
In data set [8] the target is T6, ADAAD wild type (GST cleaved) (UniProt Q9TTA5 229-940).
T6 sequence: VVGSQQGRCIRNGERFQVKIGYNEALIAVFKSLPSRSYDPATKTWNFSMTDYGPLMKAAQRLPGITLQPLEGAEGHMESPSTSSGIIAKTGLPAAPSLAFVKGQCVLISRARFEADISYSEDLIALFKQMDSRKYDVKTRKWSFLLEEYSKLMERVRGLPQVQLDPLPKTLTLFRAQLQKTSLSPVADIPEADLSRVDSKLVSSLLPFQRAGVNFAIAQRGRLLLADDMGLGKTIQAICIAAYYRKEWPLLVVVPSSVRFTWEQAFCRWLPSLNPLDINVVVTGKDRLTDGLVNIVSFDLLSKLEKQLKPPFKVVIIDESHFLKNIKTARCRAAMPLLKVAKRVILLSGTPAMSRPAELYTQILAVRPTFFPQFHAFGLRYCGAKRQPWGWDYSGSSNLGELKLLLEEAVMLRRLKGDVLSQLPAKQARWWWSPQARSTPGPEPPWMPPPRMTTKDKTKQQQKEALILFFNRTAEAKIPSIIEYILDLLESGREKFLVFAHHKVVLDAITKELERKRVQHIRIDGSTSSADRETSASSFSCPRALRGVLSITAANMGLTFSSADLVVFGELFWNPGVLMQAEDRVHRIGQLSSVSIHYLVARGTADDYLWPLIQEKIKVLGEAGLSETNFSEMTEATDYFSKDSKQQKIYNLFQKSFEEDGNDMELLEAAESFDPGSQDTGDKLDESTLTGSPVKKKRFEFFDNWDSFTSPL
Briefly: intrinsic tryptophan fluorescence quenching; Fluorescence at 25 C (Cary-Varian spectrofluorimeter); buffer, salt and pH not given (as in ref 13). To be noted: protein: recombinant; tags: none (GST removed with PreScission); hairpin.

The source of these data is PMC3509132, “Global Epigenetic Changes Induced by SWI2/SNF2 Inhibitors Characterize Neomycin-Resistant Mammalian Cells” (PLoS ONE, 2012).

Read-outs that look alike come from different tables or passages of the source.

As for “slDNA: Stem-loop DNA (5′- GCGCAATTGCGCTCGACGATTTTTTAGCGCAATTGCGC-3′), a well-characterized DNA effector of ADAAD (DNA, backbone and methylation of C not given here; stem-loop DNA)”, the Kd (usually the concentration at which binding is half-saturated) was determined as 0.46 nM with ADAAD [1] (ADAAD + ADAADiK (2 μM ADAADiK)); 0.63 nM with ADAAD [1] (ADAAD + ADAADiN (saturated with 2 μM ADAADiN)); 6.5 nM in data set [2]; 41.5 nM in data set [3]; 8.2 nM in data set [4]; 22.1 nM in data set [5]. The Kd is 8.7 nM in data set [6] and 19.9 nM in the data set with ADAAD [7].
As to GCGCAATTGCGCTCGACGATTTTTTAGCGCAATTGCGC (structured_DNA) [slDNA (stem-loop DNA)], in data set [8], the Kd is 3.8 ± 1.1 nM.
